PubChem BioAssay (NCI)
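Following 48 hours of exposure in 96-well plates, responses at five concentrations were used to interpolate endpoints linearly. Here, GI50 denotes the concentration required for 50% inhibition of growth. At the TGI there is no net growth.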

Key:
Test in all cases: DTP human tumour cell line panel, 48 h
SF-295 CNS = system: SF-295 CNS
RXF 393 renal = system: RXF 393 renal
RPMI-8226 leukemia = system: RPMI-8226 leukemia
MCF7 breast = system: MCF7 breast
NCI-H23 lung = system: NCI-H23 lung
HCT-15 colon = system: HCT-15 colon
COLO 205 colon = system: COLO 205 colon
SR leukemia = system: SR leukemia
MDA-MB-231 breast = system: MDA-MB-231 breast
EKVX NSCLC = system: EKVX NSCLC
SK-MEL-28 melanoma = system: SK-MEL-28 melanoma
OVCAR-4 ovarian = system: OVCAR-4 ovarian
SF-268 CNS = system: SF-268 CNS
NCI-H460 lung = system: NCI-H460 lung
T-47D breast = system: T-47D breast
MALME-3M melanoma = system: MALME-3M melanoma
SK-MEL-5 melanoma = system: SK-MEL-5 melanoma
TK-10 renal = system: TK-10 renal
PC-3 prostate = system: PC-3 prostate
UACC-62 melanoma = system: UACC-62 melanoma
K-562 leukemia = system: K-562 leukemia
HCC-2998 colon = system: HCC-2998 colon
MOLT-4 leukemia = system: MOLT-4 leukemia
NCI/ADR-RES ovarian = system: NCI/ADR-RES ovarian
NCI-H226 lung = system: NCI-H226 lung
A498 renal = system: A498 renal
BT-549 breast = system: BT-549 breast
MDA-MB-435 = system: MDA-MB-435
KM12 colon = system: KM12 colon
OVCAR-3 ovarian = system: OVCAR-3 ovarian
UO-31 renal = system: UO-31 renal
SN12C renal = system: SN12C renal
HOP-92 NSCLC = system: HOP-92 NSCLC
ACHN renal = system: ACHN renal
LOX IMVI melanoma = system: LOX IMVI melanoma
HS 578T breast = system: HS 578T breast
UACC-257 melanoma = system: UACC-257 melanoma
DU-145 prostate = system: DU-145 prostate
CCRF-CEM leukemia = system: CCRF-CEM leukemia
HL-60(TB) leukemia = system: HL-60(TB) leukemia
SNB-19 CNS = system: SNB-19 CNS
SNB-75 CNS = system: SNB-75 CNS
HCT-116 colon = system: HCT-116 colon
786-0 renal = system: 786-0 renal
SF-539 CNS = system: SF-539 CNS
SW-620 colon = system: SW-620 colon
IGROV1 ovarian = system: IGROV1 ovarian
A549 NSCLC = system: A549 NSCLC
CAKI-1 renal = system: CAKI-1 renal
OVCAR-5 ovarian = system: OVCAR-5 ovarian
HT29 colon = system: HT29 colon
HOP-62 NSCLC = system: HOP-62 NSCLC
NCI-H522 lung = system: NCI-H522 lung
U251 CNS = system: U251 CNS
SK-MEL-2 melanoma = system: SK-MEL-2 melanoma
M14 melanoma = system: M14 melanoma

CCOC(=O)c1c(NCC(=O)Nc2cccc([N+](=O)[O-])c2)sc(C(C)=O)c1C showed a GI50 (SF-295 CNS) of 2170 nM, a TGI (SF-295 CNS) of 5110 nM and a GI50 (RXF 393 renal) of 1210 nM. The TGI (RXF 393 renal) was 2510 nM, the GI50 (RPMI-8226 leukemia) was 2510 nM and the TGI (RPMI-8226 leukemia) was 6790 nM. The GI50 (MCF7 breast) was 1440 nM, the TGI (MCF7 breast) was 5210 nM and the GI50 (NCI-H23 lung) was 1140 nM. The TGI (NCI-H23 lung) was 3450 nM, the GI50 (HCT-15 colon) was 845 nM and the TGI (HCT-15 colon) was 5350 nM. The GI50 (COLO 205 colon) was 1650 nM, the TGI (COLO 205 colon) was 4600 nM and the GI50 (SR leukemia) was 646 nM. The TGI (SR leukemia) was over 100000 nM, the GI50 (MDA-MB-231 breast) was 2120 nM and the TGI (MDA-MB-231 breast) was 4770 nM. It also gave a GI50 (EKVX NSCLC) of 2100 nM, a TGI (EKVX NSCLC) of 5520 nM and a GI50 (SK-MEL-28 melanoma) of 1780 nM. It also gave a TGI (SK-MEL-28 melanoma) of 3710 nM, a GI50 (OVCAR-4 ovarian) of 2230 nM and a TGI (OVCAR-4 ovarian) of 6360 nM. The GI50 (SF-268 CNS) was 2110 nM, the TGI (SF-268 CNS) was 5160 nM and the GI50 (NCI-H460 lung) was 1210 nM. It also gave a TGI (NCI-H460 lung) of 3260 nM, a GI50 (T-47D breast) of 2310 nM and a TGI (T-47D breast) of 6710 nM. The GI50 (MALME-3M melanoma) was 1510 nM, the TGI (MALME-3M melanoma) was 3060 nM and the GI50 (SK-MEL-5 melanoma) was 1680 nM. The TGI (SK-MEL-5 melanoma) was 3170 nM, the GI50 (TK-10 renal) was 2100 nM and the TGI (TK-10 renal) was 6810 nM. It also gave a GI50 (PC-3 prostate) of 794 nM, a TGI (PC-3 prostate) of 3630 nM and a GI50 (UACC-62 melanoma) of 574 nM. It also gave a TGI (UACC-62 melanoma) of 2140 nM, a GI50 (K-562 leukemia) of 1890 nM and a TGI (K-562 leukemia) of over 100000 nM. The GI50 (HCC-2998 colon) was 1980 nM, the TGI (HCC-2998 colon) was 3910 nM and the GI50 (MOLT-4 leukemia) was 570 nM. The TGI (MOLT-4 leukemia) was over 100000 nM, the GI50 (NCI/ADR-RES ovarian) was 1770 nM and the TGI (NCI/ADR-RES ovarian) was 5390 nM. It also gave a GI50 (NCI-H226 lung) of 1640 nM, a TGI (NCI-H226 lung) of 4460 nM and a GI50 (A498 renal) of 1700 nM. It also gave a TGI (A498 renal) of 3310 nM, a GI50 (BT-549 breast) of 1440 nM and a TGI (BT-549 breast) of 4850 nM. It also gave a GI50 (MDA-MB-435) of 1680 nM, a TGI (MDA-MB-435) of 3100 nM and a GI50 (KM12 colon) of 2610 nM. The TGI (KM12 colon) was 7990 nM, the GI50 (OVCAR-3 ovarian) was 2290 nM and the TGI (OVCAR-3 ovarian) was 5690 nM. It also gave a GI50 (UO-31 renal) of 1270 nM, a TGI (UO-31 renal) of 2620 nM and a GI50 (SN12C renal) of 1840 nM. The TGI (SN12C renal) was 5400 nM, the GI50 (HOP-92 NSCLC) was 1680 nM and the TGI (HOP-92 NSCLC) was 4560 nM. The GI50 (ACHN renal) was 1500 nM, the TGI (ACHN renal) was 2900 nM and the GI50 (LOX IMVI melanoma) was 411 nM. The TGI (LOX IMVI melanoma) was 1670 nM, the GI50 (HS 578T breast) was 2050 nM and the TGI (HS 578T breast) was 5970 nM. For the same compound, the GI50 (UACC-257 melanoma) was 2500 nM, the TGI (UACC-257 melanoma) was 7470 nM and the GI50 (DU-145 prostate) was 2210 nM. For the same compound, the TGI (DU-145 prostate) was 5910 nM, the GI50 (CCRF-CEM leukemia) was 585 nM and the TGI (CCRF-CEM leukemia) was over 100000 nM. It also gave a GI50 (HL-60(TB) leukemia) of 2570 nM, a TGI (HL-60(TB) leukemia) of 14200 nM and a GI50 (SNB-19 CNS) of 2310 nM. For the same compound, the TGI (SNB-19 CNS) was 6500 nM, the GI50 (SNB-75 CNS) was 2030 nM and the TGI (SNB-75 CNS) was 5610 nM. It also gave a GI50 (HCT-116 colon) of 1710 nM, a TGI (HCT-116 colon) of 5020 nM and a GI50 (786-0 renal) of 1970 nM. The TGI (786-0 renal) was 4210 nM, the GI50 (SF-539 CNS) was 1820 nM and the TGI (SF-539 CNS) was 4480 nM. The GI50 (SW-620 colon) was 491 nM, the TGI (SW-620 colon) was 7690 nM and the GI50 (IGROV1 ovarian) was 414 nM. It also gave a TGI (IGROV1 ovarian) of 1620 nM, a GI50 (A549 NSCLC) of 2570 nM and a TGI (A549 NSCLC) of 8020 nM. The GI50 (CAKI-1 renal) was 1270 nM, the TGI (CAKI-1 renal) was 3650 nM and the GI50 (OVCAR-5 ovarian) was 1420 nM. It also gave a TGI (OVCAR-5 ovarian) of 4190 nM, a GI50 (HT29 colon) of 797 nM and a TGI (HT29 colon) of 3260 nM. It also gave a GI50 (HOP-62 NSCLC) of 2500 nM, a TGI (HOP-62 NSCLC) of 6580 nM and a GI50 (NCI-H522 lung) of 1280 nM. For the same compound, the TGI (NCI-H522 lung) was 4120 nM, the GI50 (U251 CNS) was 2360 nM and the TGI (U251 CNS) was 9140 nM. The GI50 (SK-MEL-2 melanoma) was 2010 nM, the TGI (SK-MEL-2 melanoma) was 4840 nM and the GI50 (M14 melanoma) was 1500 nM. The TGI (M14 melanoma) was 3280 nM.
